# From ChEMBL document CHEMBL6115028, “An Amazing 30-Year Journey around the DABO Family: A Medicinal Chemistry Lesson on a Versatile Class of Non-nucleoside HIV-1 Reverse Transcriptase Inhibitors” (J Med Chem, 2025)
# Assays:
# [1] = tested on: Human immunodeficiency virus 1; test: Antiviral activity against wild-type HIV-1 IIIB infected in human MT4 cells assessed as reduction in virus-induced cytopathic effect incubated for 5 days by MTT assay; assay type: functional, organism-based; settings: Human immunodeficiency virus 1, IIIB, MT4, 120 h
# [2] = tested on: MT4; test: Cytotoxicity against human MT4 cells assessed as reduction in cell growth after 5 days by MTT assay; assay type: functional; settings: MT4, 120 h, time 5 day
# [3] = molecular target: T1, Human immunodeficiency virus type 1 reverse transcriptase (Human immunodeficiency virus 1, UniProt Q72547); test: Inhibition of wild type HIV-1 Reverse transcriptase
# [4] = tested on: Human immunodeficiency virus 1; test: Antiviral activity against wild type HIV-1 NL4-3 infected in human MT4 cells assessed as reduction in viral replication measured for 72 hrs by ELISA analysis; assay type: functional, organism-based; settings: Human immunodeficiency virus 1, NL4-3, MT4, 72 h
# [5] = Binding affinity to HIV-1 reverse transcriptase Y181L mutant assessed as inhibition constant; set-up: species or system Human immunodeficiency virus 1
# [6] = molecular target: T2, Reverse transcriptase (Human immunodeficiency virus 1, UniProt Q9WKE8, K103N); test: Binding affinity to HIV-1 reverse transcriptase K103N mutant assessed as inhibition constant
# [7] = tested on: Human immunodeficiency virus 1; test: Antiviral activity against NNRTI-resistant HIV-1 harboring E138K mutant infected in human MT4 cells assessed as protection against virus-induced cytopathic effect by MTT assay; assay type: functional, organism-based; settings: Human immunodeficiency virus 1, MT4
# [8] = tested on: Human immunodeficiency virus 1; test: Antiviral activity against wild type HIV-1 NL4-3 infected in human MT4 cells assessed as reduction in viral replication; assay type: functional, organism-based; settings: Human immunodeficiency virus 1, NL4-3, MT4; read-out: EC50
# [9] = tested on: Human immunodeficiency virus 1; test: Antiviral activity against HIV-1 NL4-3 harboring infected Y181C mutant infected in human MT4 cells assessed as reduction in viral replication; assay type: functional, organism-based; settings: Human immunodeficiency virus 1, NL4-3, MT4
# [10] = tested on: Human immunodeficiency virus 1; test: Antiviral activity against HIV-1 NL4-3 harboring infected K103N mutant infected in human MT4 cells assessed as reduction in viral replication; assay type: functional, organism-based; settings: Human immunodeficiency virus 1, NL4-3, MT4
# [11] = molecular target: T2, Reverse transcriptase; test: Inhibition of HIV-1 Reverse transcriptase K103N mutant
# [12] = tested on: Human immunodeficiency virus 1; test: Antiviral activity against HIV-1 NL4-3 harboring infected Y188L mutant infected in human MT4 cells assessed as reduction in viral replication; assay type: functional, organism-based; settings: Human immunodeficiency virus 1, NL4-3, MT4
# [13] = Selectivity index, ratio of CC50 for human MT4 cells to EC50 for antiviral activity against HIV1 infected in human MT4 cells; assay type: toxicity, cell-based; settings: read-out: Ratio CC50/EC50
# [14] = tested on: MT4; test: Cytotoxicity against human MT4 cells assessed as reduction in […] incubated for 4 days by MTT assay; assay type: functional; settings: MT4, 96 h, time 4 day
# [15] = tested on: Human immunodeficiency virus 1; test: Antiviral activity against HIV1 IIIB infected in human MT4 cells assessed as reduction in virus-induced cytopathic effect incubated for 4 days by MTT assay; assay type: functional, organism-based; settings: Human immunodeficiency virus 1, IIIB, MT4, 96 h
# [16] = tested on: Human immunodeficiency virus 1; test: Antiviral activity against wild type HIV-1 IIIB infected in human MT4 cells assessed as protection against virus-induced cytopathic effect incubated for 5 days by MTT assay; assay type: functional; settings: Human immunodeficiency virus 1, IIIB, MT4, 120 h; time 5 day; read-out: ED50 (the source's name)
# [17] = tested on: MT4; test: Cytotoxicity against human MT4 cells assessed as reduction in cell growth incubated for 5 days by MTT assay; assay type: functional; settings: MT4, 120 h, time 5 day
# [18] = tested on: Human immunodeficiency virus 1; test: Antiviral activity against HIV-1 3B infected in human MT4 cells assessed as reduction in viral replication incubated for 5 days by MTT assay; assay type: functional, organism-based; settings: Human immunodeficiency virus 1, 3B, MT4, 120 h
# [19] = Cytotoxicity against human PBMC cells; assay type: toxicity, cell-based
# [20] = Toxicity in human C8166 cells assessed as reduction in cell viability incubated for 72 hrs by MTT assay; assay type: cell-based; settings: read-out: TD50
# [21] = tested on: Human alphaherpesvirus 1; test: Antiviral activity against HSV-1 infected in Vero cells by plaque reduction assay; assay type: functional; settings: Human alphaherpesvirus 1, Vero; read-out: ED50 (the source's name)
# [22] = tested on: Human immunodeficiency virus 1; test: Antiviral activity against HIV-1 IIIB infected in human C8166 cells assessed as reduction in viral replication measured for 3 days; assay type: functional; settings: Human immunodeficiency virus 1, IIIB, C8166, 72 h; time 3 day; read-out: ED50 (the source's name)
# [23] = Toxicity in African green monkey Vero cells assessed as reduction in cell viability incubated for 72 hrs by MTT assay; assay type: cell-based; settings: chlorocebus sabaeus, read-out: TD50
# [24] = tested on: Human immunodeficiency virus 1; test: Antiviral activity against wild type HIV-1 IIIB infected in human MT4 cells assessed as protection against virus-induced cytopathic effect incubated for 72 hrs by MTT assay; assay type: functional, organism-based; settings: Human immunodeficiency virus 1, IIIB, MT4, 72 h
# [25] = tested on: MT4; test: Cytotoxicity against human MT4 cells; assay type: functional
# [26] = tested on: Human immunodeficiency virus 1; test: Antiviral activity against HIV-1 infected in human MT4 cells; assay type: functional, organism-based; settings: Human immunodeficiency virus 1, MT4
# [27] = molecular target: T1, Human immunodeficiency virus type 1 reverse transcriptase; test: Inhibition of recombinant HIV-1 reverse transcriptase associated RNA-dependent DNA polymerase activity
structure (smiles),measurement,setting,value
CCCNc1nc(C(C)c2c(F)cccc2F)c(C)c(=O)[nH]1 (stereo not drawn),EC50,[1],20 nM
same,CC50,[2],> 200000 nM
same,IC50,[3],30 nM
CCN(C)c1nc(C(C)c2c(F)cccc2F)c(C)c(=O)[nH]1 (stereo not drawn),EC50,[4],3 nM
same,Ki,[5],4000 nM
same,Ki,[6],500 nM
Cc1c(C(C)c2c(F)cccc2F)nc(N(C)C(C)C)[nH]c1=O (stereo not drawn),EC50,[4],5 nM
same,Ki,[5],1190 nM
same,Ki,[6],80 nM
Cc1c(C(C)c2c(F)cccc2F)nc(N(C)Cc2ccc([N+](=O)[O-])cc2)[nH]c1=O (stereo not drawn),EC50,[7],518 nM
same,EC50,[8],10 nM
same,EC50,[9],814 nM
same,EC50,[10],518 nM
COc1ccc(CN(C)c2nc(C(C)c3c(F)cccc3F)cc(=O)[nH]2)cc1 (stereo not drawn),EC50,[8],2 nM
same,IC50,[11],1050 nM
same,EC50,[12],10 nM
same,EC50,[9],1610 nM
same,EC50,[10],3 nM
COc1ccc(CN(C)c2nc(C(C)c3c(F)cccc3F)c(C)c(=O)[nH]2)cc1 (stereo not drawn),EC50,[7],102 nM
same,EC50,[8],3 nM
same,EC50,[9],80 nM
same,EC50,[10],102 nM
CCCN(C)c1nc(C(C)c2c(F)cccc2F)c(C)c(=O)[nH]1 (stereo not drawn),EC50,[4],5 nM
same,Ki,[5],1430 nM
same,Ki,[6],170 nM
CCC(C)Sc1nc(O)cc(Cc2cccc3ccccc23)n1 (stereo not drawn),selectivity ratio,[13],> 909
same,CC50,[14],> 300000 nM
same,EC50,[15],330 nM
CCOC1CSc2nc(=O)c(CC)c(Cc3cc(C)cc(C)c3)n21 (stereo not drawn),EC50,[16],700 nM
CCC(C)Sc1nc(Cc2cc(C)cc(C)c2)c(Br)c(=O)[nH]1 (stereo not drawn),CC50,[17],153000 nM
same,EC50,[18],6700 nM
C=CCc1c(Cc2cc(C)cc(C)c2)nc(SCC2OCCC(C)O2)[nH]c1=O (stereo not drawn),CC50,[17],> 100000 nM
same,EC50,[18],550 nM
Nc1cc(Cl)nc(Sc2ccccc2)n1,CC50,[19],207000 nM
COc1ccc(CNc2nc(C(C)c3c(F)cccc3F)cc(=O)[nH]2)cc1 (stereo not drawn),EC50,[8],3 nM
same,IC50,[11],5000 nM
same,EC50,[12],> 5000 nM
same,EC50,[9],60 nM
same,EC50,[10],2230 nM
CCCCOc1nc(Cc2ccc(OC)cc2)cc(=O)[nH]1,CC50 at 72 h,[20],100 µg/mL
same,EC50,[21],50 µg/mL
same,EC50,[22],25 µg/mL
same,CC50 at 72 h,[23],100 µg/mL
COc1cccc(Sc2nc(Cc3cc(C)cc(C)c3)c(C)c(=O)[nH]2)c1,EC50,[24],1600 nM
same,CC50,[25],> 100000 nM
CCc1c(Cc2cc(C)cc(C)c2)nc2n(c1=O)COCCS2,EC50,[16],1600 nM
CCC(C)Sc1nc(Cc2cc(C)cc(C)c2)cc(=O)[nH]1 (stereo not drawn),CC50,[17],150000 nM
same,EC50,[18],1200 nM
COc1ccc(Cc2cc(N)nc(OC)n2)cc1,CC50 at 72 h,[20],50 µg/mL
same,EC50,[21],25 µg/mL
same,EC50,[22],12.5 µg/mL
same,CC50 at 72 h,[23],50 µg/mL
Cc1c(C(C)c2c(F)cccc2F)nc(NC2CCCCC2)[nH]c1=O (stereo not drawn),EC50,[1],20 nM
same,CC50,[2],90000 nM
same,IC50,[3],35 nM
CSCCSc1nc(C2(c3c(F)cccc3F)CC2)c(C)c(=O)[nH]1,EC50,[26],5 nM
same,selectivity ratio,[13],2330
same,CC50,[25],14000 nM
Cc1ccccc1Cc1nc(SC2CCCCC2)[nH]c(=O)c1C,selectivity ratio,[13],> 506
same,IC50,[27],1300 nM
same,CC50,[14],> 304000 nM
same,EC50,[15],600 nM
CCc1c(Cc2cc(C)cc(C)c2)n2c(nc1=O)SCCOC2,EC50,[16],600 nM
COc1ccc(C2CC2CNc2nc(C(C)c3c(F)cccc3F)cc(=O)[nH]2)cc1 (stereo not drawn),EC50,[8],1 nM
same,IC50,[11],880 nM
same,EC50,[12],> 5000 nM
same,EC50,[9],100 nM
same,EC50,[10],130 nM
